Data on 19 compounds can be found in patent US8623859B2, “Bradykinin B1 antagonists” (Evotec AG, priority 2008, dated 2014).

A word on the IC50: it is the point on the concentration scale where inhibition reaches its midpoint.

This assay addresses T1, human B1 (Homo sapiens, UniProt P46663).
T1 construct: host or cells: CHO-K1
T1 sequence (P46663 1-353): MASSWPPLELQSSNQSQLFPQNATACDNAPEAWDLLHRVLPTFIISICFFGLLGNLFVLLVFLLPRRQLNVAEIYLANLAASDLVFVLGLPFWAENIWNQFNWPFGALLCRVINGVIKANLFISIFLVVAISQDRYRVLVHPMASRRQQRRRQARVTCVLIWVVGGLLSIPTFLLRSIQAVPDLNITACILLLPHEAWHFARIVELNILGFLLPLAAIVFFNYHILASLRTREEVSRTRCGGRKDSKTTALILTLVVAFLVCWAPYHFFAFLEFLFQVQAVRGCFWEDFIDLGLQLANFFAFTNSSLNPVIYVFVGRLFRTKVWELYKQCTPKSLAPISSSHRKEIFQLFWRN
The assay is described as follows: Calcium flux assay for Bradykinin B1 antagonist, CHO-K1 cell line expressing human B1. Type of assay: cell-based. Conditions: CHO-K1 cells expressing human B1, agonist Lys-(Des-Arg)-Bradykinin, read-out: Potency (IC50 value against human B1). Put shortly: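 Inhibition of B1 agonist-evoked intracellular Ca2+ rise was followed by continuous fluorescence at 538 nm, with integrated, background-normalized signals plotted versus log compound concentration. Test compounds (eight 10-fold dilutions, triplicate, 1% DMSO final) were added 30 min at 25° C beforehand to Fluo-4AM-loaded human B1 CHO-K1 cells in pH 7.4 assay buffer.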
For orientation: A change in cytosolic calcium serves as a functional read-out for many receptors and channels.

Where a name gives a salt, the structure may show the parent alone.

In the case of `COc1cc(C)c(S(=O)(=O)N(Cc2noc(C(=O)N3CCN(CCCCN(C)C)CC3)n2)C2CC2)c(C)c1` [Ex 320, N-Cyclopropyl-N-{[5-({4-[4-(dimethylamino)butyl]piperazin-1-yl}carbonyl)-1,2,4-oxadiazol-3-yl]methyl}-4-methoxy-2,6-dimethylbenzenesulfonamide trifluoroacetate], the IC50 was 0.1 to 1 µM. On to `COc1cc(C)c(S(=O)(=O)N(C)Cc2nc(C(=O)N3CCN(CC4CCN(C)CC4)CC3)no2)c(C)c1` [Ex 321, 4-Methoxy-N,2,6-trimethyl-N-{[3-({4-[(1-methylpiperidin-4-yl)methyl]piperazin-1-yl}carbonyl)-1,2,4-oxadiazol-5-yl]methyl}benzenesulfonamide], for which the IC50 was in the range of 0.1 to 1 µM. Turning to `COc1cc(C)c(S(=O)(=O)N(C)Cc2nc(C(=O)N3CCN(CCCCN(C)C)CC3)no2)c(C)c1` [Ex 322, N-{[3-({4-[4-(Dimethylamino)butyl]piperazin-1-yl}carbonyl)-1,2,4-oxadiazol-5-yl]methyl}-4-methoxy-N,2,6-trimethylbenzenesulfonamide trifluoroacetate], the 50% inhibitory concentration (IC50) was in the range of 0.1 to 1 µM. With `COc1cc(C)c(S(=O)(=O)N(C)Cc2nc(C(=O)N3CCN(Cc4cccnc4)CC3)no2)c(C)c1` [Ex 323, 4-Methoxy-N,2,6-trimethyl-N-[(3-{[4-(pyridin-3-ylmethyl)piperazin-1-yl]carbonyl}-1,2,4-oxadiazol-5-yl)methyl]benzenesulfonamide], the IC50 was in the range of 0.1 to 1 µM. The result for `COc1cc(C)c(S(=O)(=O)N(C)Cc2nc(C(=O)N(C)Cc3cccc(CN4CCCC4)c3)no2)c(C)c1` [Ex 324, 5-({[(4-Methoxy-2,6-dimethylphenyl)sulfonyl](methyl)amino}methyl)-N-methyl-N-[3-(pyrrolidin-1-ylmethyl)benzyl]-1,2,4-oxadiazole-3-carboxamide trifluoroacetate] reads 0.01 to 0.1 µM. For `COc1cc(C)c(S(=O)(=O)N(C)Cc2nc(C(=O)N3CCN(CCCN4CCCC4)CC3)no2)c(C)c1` [Ex 325, 4-Methoxy-N,2,6-trimethyl-N-[(3-{[4-(3-pyrrolidin-1-ylpropyl)piperazin-1-yl]carbonyl}-1,2,4-oxadiazol-5-yl)methyl]benzenesulfonamide], the IC50 was in the range of 0.01 to 0.1 µM. With `COc1cc(C)c(S(=O)(=O)N(C)Cc2nnc(C(=O)N3CCN(CCN4CCCC4)CC3)s2)c(C)c1` [Ex 326, 4-Methoxy-N,2,6-trimethyl-N-[(5-{[4-(2-pyrrolidin-1-ylethyl)piperazin-1-yl]carbonyl}-1,3,4-thiadiazol-2-yl)methyl]benzenesulfonamide], the IC50 lay within 0.1 to 1 µM.

For `COc1cc(C)c(S(=O)(=O)N(C)Cc2nnc(C(=O)N3CCN(CCCN4CCCC4)CC3)s2)c(C)c1` [Ex 327, 4-Methoxy-N,2,6-trimethyl-N-[(5-{[4-(3-pyrrolidin-1-ylpropyl)piperazin-1-yl]carbonyl}-1,3,4-thiadiazol-2-yl)methyl]benzenesulfonamide], the IC50 is 0.1 to 1 µM. In the case of `COc1cc(C)c(S(=O)(=O)N(C)Cc2nnc(C(=O)N(C)CCc3ccc(C4=NCCN4)cc3)s2)c(C)c1` [Ex 328, N-{2-[4-(4,5-Dihydro-1H-imidazol-2-yl)phenyl]ethyl}-5-({[(4-methoxy-2,6-dimethylphenyl)sulfonyl](methyl)amino}methyl)-N-methyl-1,3,4-thiadiazole-2-carboxamide], the IC50 was less than 0.01 µM. Consider `COc1cc(C)c(S(=O)(=O)N(C)Cc2nnc(C(=O)N(C)Cc3ccc(CN4CCCC4)cc3)s2)c(C)c1` [Ex 329, 5-({[(4-Methoxy-2,6-dimethylphenyl)sulfonyl](methyl)amino}methyl)-N-methyl-N-[4-(pyrrolidin-1-ylmethyl)benzyl]-1,3,4-thiadiazole-2-carboxamide], for which the IC50 was 0.1 to 1 µM.

For `COc1cc(C)c(S(=O)(=O)N(C)Cc2nnc(C(=O)NCCc3ccc(C4=NCCN4)cc3)s2)c(C)c1` [Ex 330, N-{2-[4-(4,5-Dihydro-1H-imidazol-2-yl)phenyl]ethyl}-5-({[(4-methoxy-2,6-dimethylphenyl)sulfonyl](methyl)amino}methyl)-1,3,4-thiadiazole-2-carboxamide trifluoroacetamide], the IC50 is less than 0.01 µM. With `COc1cc(C)c(S(=O)(=O)N(C)Cc2nnc(C(=O)N(C)Cc3cccc(CN4CCCC4)c3)s2)c(C)c1` [Ex 331, 5-({[(4-Methoxy-2,6-dimethylphenyl)sulfonyl](methyl)amino}methyl)-N-methyl-N-[3-(pyrrolidin-1-ylmethyl)benzyl]-1,3,4-thiadiazole-2-carboxamide trifluoroacetate], the IC50 was 0.01 to 0.1 µM.

For `COc1cc(C)c(S(=O)(=O)N(C)Cc2nnc(C(=O)N3CCN(C4CCN(C)CC4)CC3)s2)c(C)c1` [Ex 332, 4-Methoxy-N,2,6-trimethyl-N-[(5-{[4-(1-methylpiperidin-4-yl)piperazin-1-yl]carbonyl}-1,3,4-thiadiazol-2-yl)methyl]benzenesulfonamide trifluoroacetamide], the IC50 lay in the range of 0.1 to 1 µM.

Regarding `COc1cc(C)c(S(=O)(=O)N(C)Cc2nnc(C(=O)N3CCN(CC4CCN(C)CC4)CC3)s2)c(C)c1` [Ex 333, 4-Methoxy-N,2,6-trimethyl-N-{[5-({4-[(1-methylpiperidin-4-yl)methyl]piperazin-1-yl}carbonyl)-1,3,4-thiadiazol-2-yl]methyl}benzenesulfonamide], the half-maximal inhibitory concentration (IC50) lay within 0.1 to 1 µM. For `COc1cc(C)c(S(=O)(=O)N(Cc2nnc(C(=O)N3CCN(C4CCN(C)CC4)CC3)s2)C2CC2)c(C)c1` [Ex 334, N-Cyclopropyl-4-methoxy-2,6-dimethyl-N-[(5-{[4-(1-methylpiperidin-4-yl)piperazin-1-yl]carbonyl}-1,3,4-thiadiazol-2-yl)methyl]benzenesulfonamide], the IC50 was less than 0.01 µM. The result for `COc1cc(C)c(S(=O)(=O)N(Cc2nnc(C(=O)N3CCN(CC4CCN(C)CC4)CC3)s2)C2CC2)c(C)c1` [Ex 335, N-Cyclopropyl-4-methoxy-2,6-dimethyl-N-{[5-({4-[(1-methylpiperidin-4-yl)methyl]piperazin-1-yl}carbonyl)-1,3,4-thiadiazol-2-yl]methyl}benzenesulfonamide] reads less than 0.01 µM. To `COc1cc(C)c(S(=O)(=O)N(Cc2nnc(C(=O)N3CCN(CCCN4CCCC4)CC3)s2)C2CC2)c(C)c1` [Ex 336, N-Cyclopropyl-4-methoxy-2,6-dimethyl-N-[(5-{[4-(3-pyrrolidin-1-ylpropyl)piperazin-1-yl]carbonyl}-1,3,4-thiadiazol-2-yl)methyl]benzenesulfonamide] belongs 0.01 to 0.1 µM.

As for `COc1cc(C)c(S(=O)(=O)N(Cc2nnc(C(=O)N3CCC(CCN4CCCC4)CC3)s2)C2CC2)c(C)c1` [Ex 337, N-Cyclopropyl-4-methoxy-2,6-dimethyl-N-[(5-{[4-(2-pyrrolidin-1-ylethyl)piperidin-1-yl]carbonyl}-1,3,4-thiadiazol-2-yl)methyl]benzenesulfonamide], the IC50 was less than 0.01 µM. Turning to `COc1cc(C)c(S(=O)(=O)N(C)Cc2nnc(C(=O)N3CCN(CC4CCN(C)CC4)CC3)[nH]2)c(C)c1` [Ex 338, 4-Methoxy-N,2,6-trimethyl-N-{[5-({4-[(1-methylpiperidin-4-yl)methyl]piperazin-1-yl}carbonyl)-4H-1,2,4-triazol-3-yl]methyl}benzenesulfonamide], the IC50 lay within 0.1 to 1 µM.
